The values below come from patent publication US9556179B2 (BRISTOL-MYERS SQUIBB COMPANY, priority 2012, dated 2017).

Structures are written as SMILES.

The target of test [1] is CK1ε (Homo sapiens (Human), UniProt P49674). Briefly: CK1ε kinase assay (Caliper LABCHIP electrophoretic separation of fluoresceinated peptide substrate and product). The test is classed as biochemical. The settings on record: 200 pM enzyme, 50 μM ATP, 22 hours at room temperature. As for the experimental part:
(§1) CK1ε and CK1δ Kinase Assays
(§2) The kinase assay was performed in V-bottom 384-well plates. […] The reaction was incubated at room temperature for 22 hours and terminated by adding 45 μl of 35 mM EDTA to each sample. The reaction mixture was analyzed on the Caliper LABCHIP®3000 (Caliper, Hopkinton, Mass.) by electrophoretic separation of the unphosphorylated substrate and phosphorylated product. […] Compounds were dissolved at 10 mM in dimethylsulfoxide (DMSO) and evaluated at eleven concentrations. IC50 values were derived by non-linear regression analysis.

The target of test [2] is CK1δ (Homo sapiens (Human), UniProt P48730). Briefly: CK1δ kinase assay (Caliper LABCHIP electrophoretic separation of fluoresceinated peptide substrate and product). The format is biochemical. The conditions noted are these: 200 pM enzyme, 50 μM ATP, 22 hours at room temperature. The procedure:
as §1, §2

Sequence of CK1δ (P48730 whole entry): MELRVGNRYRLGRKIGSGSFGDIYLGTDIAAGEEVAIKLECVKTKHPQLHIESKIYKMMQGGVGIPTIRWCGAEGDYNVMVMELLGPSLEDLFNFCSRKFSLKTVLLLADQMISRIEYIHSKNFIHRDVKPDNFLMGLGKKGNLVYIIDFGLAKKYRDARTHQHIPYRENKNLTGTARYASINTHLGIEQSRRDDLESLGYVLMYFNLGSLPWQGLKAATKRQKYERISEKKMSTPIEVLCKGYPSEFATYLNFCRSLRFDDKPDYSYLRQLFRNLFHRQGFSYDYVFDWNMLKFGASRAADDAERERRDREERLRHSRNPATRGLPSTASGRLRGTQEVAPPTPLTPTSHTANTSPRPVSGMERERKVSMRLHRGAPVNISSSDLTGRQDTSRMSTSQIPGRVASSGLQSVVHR
Sequence of CK1ε (P49674 whole entry): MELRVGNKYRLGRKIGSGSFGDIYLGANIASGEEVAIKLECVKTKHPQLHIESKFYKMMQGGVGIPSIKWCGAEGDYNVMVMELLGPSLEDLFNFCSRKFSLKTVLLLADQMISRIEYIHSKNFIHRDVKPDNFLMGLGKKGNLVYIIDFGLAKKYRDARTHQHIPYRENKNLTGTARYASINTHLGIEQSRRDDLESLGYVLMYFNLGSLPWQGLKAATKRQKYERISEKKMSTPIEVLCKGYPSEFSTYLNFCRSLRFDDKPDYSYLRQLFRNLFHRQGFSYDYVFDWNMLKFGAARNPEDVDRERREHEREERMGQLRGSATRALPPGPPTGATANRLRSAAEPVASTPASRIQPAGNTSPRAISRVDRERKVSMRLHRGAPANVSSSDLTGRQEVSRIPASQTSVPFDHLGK

Take `O=C(Nc1cn2nc(-c3c(-c4ccc(F)cc4)ncn3C3CCN(CC4C[C@@H]5CC[C@H]4C5)CC3)ccc2n1)c1ccnc(F)c1` (stereo partly drawn) [Compound 31, N-(6-(1-(1-((1S,4R)-bicyclo[2.2.1]heptan-2-ylmethyl)piperidin-4-yl)-4-(4-fluorophenyl)-1H-imidazol-5-yl)imidazo[1,2-6]pyridazin-2-yl)-2-fluoroisonicotinamide]: the IC50 in test [1] came out at 11.2 nM; in test [2] it was 0.742 nM.

`CC(C)CCN1CCC(n2cnc(-c3ccc(F)cc3)c2-c2ccc3nc(NC(=O)c4ccnc(F)c4)cn3n2)CC1` [Compound 32, 2-fluoro-N-(6-(4-(4-fluorophenyl)-1-(1-isopentylpiperidin-4-yl)-1H-imidazol-5-yl)imidazo[1,2-b]pyridazin-2-yl)isonicotinamide]: the IC50 in test [1] turned out to be 10.7 nM; in test [2], 0.602 nM.

With `O=C(Nc1cn2nc(-c3c(-c4ccc(F)cc4)ncn3C3CCN(CCCF)CC3)ccc2n1)c1ccnc(F)c1` [Compound 33, 2-fluoro-N-(6-(4-(4-fluorophenyl)-1-(1-(3-fluoropropyl)piperidin-4-yl)-1H-imidazol-5-yl)imidazo[1,2-b]pyridazin-2-yl)isonicotinamide], the figures for the IC50 in test [1] and in test [2] were 1.9 nM and 0.378 nM, respectively.

Take `COCCN1CCC(n2cnc(-c3ccc(F)cc3)c2-c2ccc3nc(NC(=O)c4ccnc(F)c4)cn3n2)CC1` [Compound 34, 2-fluoro-N-(6-(4-(4-fluorophenyl)-1-(1-(2-methoxyethyl)piperidin-4-yl)-1H-imidazol-5-yl)imidazo[1,2-b]pyridazin-2-yl)isonicotinamide]: the IC50 in test [1] was 12.4 nM; in test [2], 0.136 nM.

For the compound `O=C(Nc1cn2nc(-c3c(-c4ccc(F)cc4)ncn3C3CCN(CC(F)(F)F)CC3)ccc2n1)c1ccnc(F)c1` [Compound 35, 2-fluoro-N-(6-(4-(4-fluorophenyl)-1-(1-(2,2,2-trifluoroethyl)piperidin-4-yl)-1H-imidazol-5-yl)imidazo[1,2-6]pyridazin-2-yl)isonicotinamide], the IC50 in test [1] is 7.22 nM; in test [2] it was 0.527 nM.

With `N#CCCN1CCC(n2cnc(-c3ccc(F)cc3)c2-c2ccc3nc(NC(=O)c4ccnc(F)c4)cn3n2)CC1` [Compound 36, N-(6-(1-(1-(2-cyanoethyl)piperidin-4-yl)-4-(4-fluorophenyl)-1H-imidazol-5-yl)imidazo[1,2-b]pyridazin-2-yl)-2-fluoroisonicotinamide], the IC50 in test [1] worked out at 1.58 nM; in test [2], 0.197 nM.

For `O=C(Nc1cn2nc(-c3c(-c4ccc(F)cc4)ncn3C3CCN(C[C@@H](O)C(F)(F)F)CC3)ccc2n1)c1ccnc(F)c1` [Compound 37, (R)-2-fluoro-N-(6-(4-(4-fluorophenyl)-1-(1-(3,3,3-trifluoro-2-hydroxypropyl)piperidin-4-yl)-1H-imidazol-5-yl)imidazo[1,2-b]pyridazin-2-yl)isonicotinamide], the IC50 stood at 1.27 nM in test [1] and 0.296 nM in test [2].

Consider `O=C(Nc1cn2nc(-c3c(-c4ccc(F)cc4)ncn3C3CCN(C[C@H](O)C(F)(F)F)CC3)ccc2n1)c1ccnc(F)c1` [Compound 38, (S)-2-fluoro-N-(6-(4-(4-fluorophenyl)-1-(1-(3,3,3-trifluoro-2-hydroxypropyl)piperidin-4-yl)-1H-imidazol-5-yl)imidazo[1,2-b]pyridazin-2-yl)isonicotinamide], for which the values for the IC50 in test [1] and in test [2] were 0.305 nM and 0.292 nM, respectively.

As for `O=C(Nc1cn2nc(-c3c(-c4ccc(F)cc4)ncn3C3CCN(C(=O)c4ccon4)CC3)ccc2n1)c1ccnc(F)c1` [Compound 39, 2-fluoro-N-(6-(4-(4-fluorophenyl)-1-(1-(isoxazole-3-carbonyl)piperidin-4-yl)-1H-imidazol-5-yl)imidazo[1,2-b]pyridazin-2-yl)isonicotinamide], the IC50 in test [1] is 2.22 nM; in test [2], 1.93 nM.

Take `NCC(=O)N1CCC(n2cnc(-c3ccc(F)cc3)c2-c2ccc3nc(NC(=O)c4ccnc(F)c4)cn3n2)CC1` [Compound 40, N-(6-(1-(1-(2-aminoacetyl)piperidin-4-yl)-4-(4-fluorophenyl)-1H-imidazol-5-yl)imidazo[1,2-b]pyridazin-2-yl)-2-fluoroisonicotinamide]: the IC50 was 0.984 nM in test [1] and 0.085 nM in test [2].

For `O=C(Nc1cn2nc(-c3c(-c4ccc(F)cc4)ncn3C3CCN(C(=O)CC(F)(F)F)CC3)ccc2n1)c1ccnc(F)c1` [Compound 42, 2-fluoro-N-(6-(4-(4-fluorophenyl)-1-(1-(3,3,3-trifluoropropanoyl)piperidin-4-yl)-1H-imidazol-5-yl)imidazo[1,2-b]pyridazin-2-yl)isonicotinamide], the IC50 in test [1] was found to be 2.93 nM; in test [2], 2.79 nM.

For `O=C(Nc1cn2nc(-c3c(-c4ccc(F)cc4)ncn3C3CCN(C(=O)c4cscn4)CC3)ccc2n1)c1ccnc(F)c1` [Compound 44, 2-fluoro-N-(6-(4-(4-fluorophenyl)-1-(1-(thiazole-4-carbonyl)piperidin-4-yl)-1H-imidazol-5-yl)imidazo[1,2-b]pyridazin-2-yl)isonicotinamide], the IC50 was found to be 1.23 nM in test [1] and 0.295 nM in test [2].

In the case of `O=C(Nc1cn2nc(-c3c(-c4ccc(F)cc4)ncn3C3CCN(C(=O)c4cc(C5CC5)on4)CC3)ccc2n1)c1ccnc(F)c1` [Compound 45, N-(6-(1-(1-(5-cyclopropylisoxazole-3-carbonyl)piperidin-4-yl)-4-(4-fluorophenyl)-1H-imidazol-5-yl)imidazo[1,2-b]pyridazin-2-yl)-2-fluoroisonicotinamide], the figures for the concentration for half-maximal inhibition (IC50) in test [1] and in test [2] were 16.4 nM and 1.98 nM, respectively.

Regarding `N#CCC(=O)N1CCC(n2cnc(-c3ccc(F)cc3)c2-c2ccc3nc(NC(=O)c4ccnc(F)c4)cn3n2)CC1` [Compound 46, N-(6-(1-(1-(2-cyanoacetyl)piperidin-4-yl)-4-(4-fluorophenyl)-1H-imidazol-5-yl)imidazo[1,2-b]pyridazin-2-yl)-2-fluoroisonicotinamide], the IC50 turned out to be 0.743 nM in test [1] and 0.198 nM in test [2].

Take `COCC(=O)N1CCC(n2cnc(-c3ccc(F)cc3)c2-c2ccc3nc(NC(=O)c4ccnc(F)c4)cn3n2)CC1` [Compound 47, 2-fluoro-N-(6-(4-(4-fluorophenyl)-1-(1-(2-methoxyacetyl)piperidin-4-yl)-1H-imidazol-5-yl)imidazo[1,2-b]pyridazin-2-yl)isonicotinamide]: the IC50 in test [1] is 1.1 nM; in test [2], 0.225 nM.

As to `O=C(Nc1cn2nc(-c3c(-c4ccc(F)cc4)ncn3C3CCN(C(=O)c4ccno4)CC3)ccc2n1)c1ccnc(F)c1` [Compound 48, 2-fluoro-N-(6-(4-(4-fluorophenyl)-1-(1-(isoxazole-5-carbonyl)piperidin-4-yl)-1H-imidazol-5-yl)imidazo[1,2-b]pyridazin-2-yl)isonicotinamide], the IC50 in test [1] was 1.45 nM; in test [2] it was 0.22 nM.

On to `O=C(Nc1cn2nc(-c3c(-c4ccc(F)cc4)ncn3C3CCN(C(=O)C4(C(F)(F)F)CCC4)CC3)ccc2n1)c1ccnc(F)c1` [Compound 49, 2-fluoro-N-(6-(4-(4-fluorophenyl)-1-(1-(1-(trifluoromethyl)cyclobutanecarbonyl)piperidin-4-yl)-1H-imidazol-5-yl)imidazo[1,2-b]pyridazin-2-yl)isonicotinamide], for which the figures for the IC50 in test [1] and in test [2] were 7.33 nM and 1.06 nM, respectively.

For `O=C(Nc1cn2nc(-c3c(-c4ccc(F)cc4)ncn3C3CCN(C(=O)c4ccsn4)CC3)ccc2n1)c1ccnc(F)c1` [Compound 50, 2-fluoro-N-(6-(4-(4-fluorophenyl)-1-(1-(isothiazole-3-carbonyl)piperidin-4-yl)-1H-imidazol-5-yl)imidazo[1,2-b]pyridazin-2-yl)isonicotinamide], the values for the IC50 in test [1] and in test [2] were 1.1 nM and 0.278 nM, respectively.

For `Cc1cc(C(=O)N2CCC(n3cnc(-c4ccc(F)cc4)c3-c3ccc4nc(NC(=O)c5ccnc(F)c5)cn4n3)CC2)no1` [Compound 51, 2-fluoro-N-(6-(4-(4-fluorophenyl)-1-(1-(5-methylisoxazole-3-carbonyl)piperidin-4-yl)-1H-imidazol-5-yl)imidazo[1,2-b]pyridazin-2-yl)isonicotinamide], the IC50 was 2.58 nM in test [1] and 0.24 nM in test [2].

For `N#Cc1ccc(C(=O)N2CCC(n3cnc(-c4ccc(F)cc4)c3-c3ccc4nc(NC(=O)c5ccnc(F)c5)cn4n3)CC2)cc1` [Compound 52, N-(6-(1-(1-(4-cyanobenzoyl)piperidin-4-yl)-4-(4-fluorophenyl)-1H-imidazol-5-yl)imidazo[1,2-b]pyridazin-2-yl)-2-fluoroisonicotinamide], the half-inhibitory concentration (IC50) in test [1] was determined as 1.44 nM; in test [2], 0.347 nM.

Regarding `O=C(Nc1cn2nc(-c3c(-c4ccc(F)cc4)ncn3C3CCN(C(=O)c4ccc(F)cc4)CC3)ccc2n1)c1ccnc(F)c1` [Compound 53, 2-fluoro-N-(6-(1-(1-(4-fluorobenzoyl)piperidin-4-yl)-4-(4-fluorophenyl)-1H-imidazol-5-yl)imidazo[1,2-b]pyridazin-2-yl)isonicotinamide], the results for the IC50 in test [1] and in test [2] were 1.56 nM and 0.191 nM, respectively.

With `CC(C)(C)C(=O)N1CCC(n2cnc(-c3ccc(F)cc3)c2-c2ccc3nc(NC(=O)c4ccnc(F)c4)cn3n2)CC1` [Compound 54, 2-fluoro-N-(6-(4-(4-fluorophenyl)-1-(1-pivaloylpiperidin-4-yl)-1H-imidazol-5-yl)imidazo[1,2-b]pyridazin-2-yl)isonicotinamide], the IC50 in test [1] worked out at 3.09 nM; in test [2], 0.446 nM.

With `CC(C)(O)C(=O)N1CCC(n2cnc(-c3ccc(F)cc3)c2-c2ccc3nc(NC(=O)c4ccnc(F)c4)cn3n2)CC1` [Compound 55, 2-fluoro-N-(6-(4-(4-fluorophenyl)-1-(1-(2-hydroxy-2-methylpropanoyl)piperidin-4-yl)-1H-imidazol-5-yl)imidazo[1,2-b]pyridazin-2-yl)isonicotinamide], the IC50 came to 1.05 nM in test [1] and 0.178 nM in test [2].

Broadly, the IC50 is the concentration at which inhibition is half-maximal.
